Experimental data reported in ChEMBL document CHEMBL3390844, “Development of substituted 7-phenyl-4-aminobenzothieno[3,2-d] pyrimidines as potent LIMK1 inhibitors” (Medchemcomm, 2011).
Values after ≈ are worked out from the molar mass of the structure shown.

How the values were obtained:
[1] = target: T1, Tyrosine-protein kinase JAK3 (Homo sapiens) (UniProt P52333); assay: Inhibition of JAK3 (unknown origin) at 1 uM
T1 sequence (whole entry): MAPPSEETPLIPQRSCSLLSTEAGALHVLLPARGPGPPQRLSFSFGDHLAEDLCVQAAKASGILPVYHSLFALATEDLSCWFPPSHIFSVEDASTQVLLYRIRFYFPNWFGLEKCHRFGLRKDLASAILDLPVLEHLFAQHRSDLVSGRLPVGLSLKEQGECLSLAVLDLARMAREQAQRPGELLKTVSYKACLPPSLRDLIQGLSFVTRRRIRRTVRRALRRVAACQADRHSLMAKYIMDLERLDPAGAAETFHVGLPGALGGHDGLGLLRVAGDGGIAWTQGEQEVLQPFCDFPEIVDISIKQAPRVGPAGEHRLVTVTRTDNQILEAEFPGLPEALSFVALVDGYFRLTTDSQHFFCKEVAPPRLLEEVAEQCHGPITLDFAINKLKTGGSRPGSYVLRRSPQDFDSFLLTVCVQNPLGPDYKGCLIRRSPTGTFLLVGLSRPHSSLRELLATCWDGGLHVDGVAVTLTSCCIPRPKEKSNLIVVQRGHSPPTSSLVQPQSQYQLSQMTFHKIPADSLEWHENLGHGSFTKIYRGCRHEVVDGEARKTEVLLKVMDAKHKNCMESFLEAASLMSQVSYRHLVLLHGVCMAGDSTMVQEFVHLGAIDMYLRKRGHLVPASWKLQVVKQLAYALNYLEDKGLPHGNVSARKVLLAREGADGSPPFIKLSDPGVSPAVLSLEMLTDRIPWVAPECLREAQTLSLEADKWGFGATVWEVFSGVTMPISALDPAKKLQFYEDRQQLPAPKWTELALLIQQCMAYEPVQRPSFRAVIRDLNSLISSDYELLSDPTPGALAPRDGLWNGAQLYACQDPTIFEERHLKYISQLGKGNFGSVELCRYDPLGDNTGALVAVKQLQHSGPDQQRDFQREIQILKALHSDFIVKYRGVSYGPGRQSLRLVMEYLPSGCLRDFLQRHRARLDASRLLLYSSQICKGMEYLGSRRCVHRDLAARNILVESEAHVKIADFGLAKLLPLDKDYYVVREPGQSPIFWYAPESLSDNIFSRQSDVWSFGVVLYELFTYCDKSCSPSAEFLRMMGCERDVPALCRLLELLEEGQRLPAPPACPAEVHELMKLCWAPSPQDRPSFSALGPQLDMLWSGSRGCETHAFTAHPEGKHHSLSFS

[2] = target: T2, LIM domain kinase 1 (Homo sapiens, UniProt P53667); assay: Inhibition of LIMK1 (unknown origin) assessed as ADP formation using cofilin-2 protein as substrate measured after 60 mins incubation with enzyme by Transcreener assay
[3] = target: Proto-oncogene tyrosine-protein kinase Src (Homo sapiens) (UniProt P12931); assay: Inhibition of Src (unknown origin) at 1 uM
[4] = target: Serine/threonine-protein kinase PAK 1 (Homo sapiens) (UniProt Q13153); assay: Inhibition of PAK1 (unknown origin) at 1 uM
[5] = Partition coefficient, log D of the compound at pH 7.4 by HPLC analysis; assay type: physicochemical; details: octanol/water
[6] = system: CYP2D6 (Homo sapiens); assay: Inhibition of CYP2D6 in human liver microsomes assessed as reduction in apparent rate of formation of metabolites using dextromethorphan as substrate at 20 uM by LC-MS analysis; details: probe dextromethorphan
[7] = target: Tyrosine-protein kinase JAK1 (Homo sapiens) (UniProt P23458); assay: Inhibition of JAK1 (unknown origin) at 1 uM
[8] = Solubility of the compound in phosphate buffer at pH 6.5 by nephelometry; assay type: physicochemical
[9] = target: hERG (KCNH2) (Homo sapiens, UniProt Q12809); assay: Inhibition of human ERG at 10 uM by fluorescence polarization assay
[10] = target: Tyrosine-protein kinase Lck (Homo sapiens) (UniProt P06239); assay: Inhibition of Lck (unknown origin) at 1 uM
[11] = Plasma protein binding in human by LC-MS analysis; assay type: ADME, cell-free; details: read-out: PPB (converted)
[12] = target: Tyrosine-protein kinase JAK2 (Homo sapiens) (UniProt O60674); assay: Inhibition of JAK2 (unknown origin) at 1 uM
[13] = target: Rho-associated protein kinase 2 (Homo sapiens) (UniProt O75116); assay: Inhibition of ROCK2 (unknown origin) at 1 uM
[14] = In vitro intrinsic clearance in human liver microsomes at 1 uM by LC-MS analysis; assay type: ADME; details: read-out: CLH
[15] = target: T2, LIM domain kinase 1; assay: Inhibition of LIMK1-catalyzed cofilin phosphorylation in human ZR-75-1 cells; assay type: cell-based
[16] = Solubility of the compound in 0.01 M HCl at pH 2 by nephelometry; assay type: physicochemical
[17] = target: LIM domain kinase 2 (Homo sapiens, UniProt P53671); assay: Inhibition of LIMK2 (unknown origin)
[18] = target: Serine/threonine-protein kinase PAK 4 (Homo sapiens) (UniProt O96013); assay: Inhibition of PAK4 (unknown origin) at 1 uM
[19] = target: CYP3A4 (Homo sapiens, UniProt P08684); assay: Inhibition of CYP3A4 in human liver microsomes assessed as reduction in apparent rate of formation of metabolites using midazolam or testosterone as substrate at 20 uM by LC-MS analysis; assay type: ADME; details: probe midazolam or testosterone
[20] = target: T3, CYP1A2 (Homo sapiens, UniProt P05177); assay: Inhibition of CYP1A2 in human liver microsomes assessed as reduction in apparent rate of formation of metabolites using phenacetin as substrate at 20 uM by LC-MS analysis; assay type: ADME; details: probe phenacetin
T3 sequence (P05177 whole entry): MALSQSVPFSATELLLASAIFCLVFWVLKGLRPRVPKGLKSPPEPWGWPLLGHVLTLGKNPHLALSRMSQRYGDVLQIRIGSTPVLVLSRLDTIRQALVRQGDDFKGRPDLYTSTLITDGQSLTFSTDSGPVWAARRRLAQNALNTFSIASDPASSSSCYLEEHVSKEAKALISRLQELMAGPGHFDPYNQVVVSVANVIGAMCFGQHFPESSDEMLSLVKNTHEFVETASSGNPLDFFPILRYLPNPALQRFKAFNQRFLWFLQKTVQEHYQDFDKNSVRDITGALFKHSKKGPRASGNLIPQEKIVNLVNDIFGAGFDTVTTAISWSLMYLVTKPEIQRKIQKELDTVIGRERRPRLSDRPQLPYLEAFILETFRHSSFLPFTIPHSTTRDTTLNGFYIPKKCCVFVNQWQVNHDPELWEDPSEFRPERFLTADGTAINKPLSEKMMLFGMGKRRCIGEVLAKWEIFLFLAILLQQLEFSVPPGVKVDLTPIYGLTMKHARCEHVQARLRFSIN

[21] = In vitro intrinsic clearance in mouse liver microsomes at 1 uM by LC-MS analysis; assay type: ADME; details: read-out: CLH

Chain of Serine/threonine-protein kinase PAK 4 (Homo sapiens) (O96013 whole entry, looked up): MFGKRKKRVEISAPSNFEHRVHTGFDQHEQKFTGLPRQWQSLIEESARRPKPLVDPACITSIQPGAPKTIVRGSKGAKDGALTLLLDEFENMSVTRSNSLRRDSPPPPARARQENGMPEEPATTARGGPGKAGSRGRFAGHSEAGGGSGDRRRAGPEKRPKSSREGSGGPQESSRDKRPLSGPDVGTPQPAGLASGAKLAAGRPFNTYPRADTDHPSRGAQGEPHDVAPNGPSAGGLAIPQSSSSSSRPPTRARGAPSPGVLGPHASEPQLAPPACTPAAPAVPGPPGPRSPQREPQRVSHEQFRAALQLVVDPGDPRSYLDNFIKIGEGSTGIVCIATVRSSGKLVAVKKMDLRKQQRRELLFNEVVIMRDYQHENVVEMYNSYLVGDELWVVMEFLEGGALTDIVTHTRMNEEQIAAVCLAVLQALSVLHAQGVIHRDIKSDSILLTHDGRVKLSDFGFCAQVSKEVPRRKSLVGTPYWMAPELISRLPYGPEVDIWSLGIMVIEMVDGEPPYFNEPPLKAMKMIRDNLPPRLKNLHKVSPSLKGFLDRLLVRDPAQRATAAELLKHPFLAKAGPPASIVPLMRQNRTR
Chain of Proto-oncogene tyrosine-protein kinase Src (Homo sapiens) (P12931 2-536 limits assumed): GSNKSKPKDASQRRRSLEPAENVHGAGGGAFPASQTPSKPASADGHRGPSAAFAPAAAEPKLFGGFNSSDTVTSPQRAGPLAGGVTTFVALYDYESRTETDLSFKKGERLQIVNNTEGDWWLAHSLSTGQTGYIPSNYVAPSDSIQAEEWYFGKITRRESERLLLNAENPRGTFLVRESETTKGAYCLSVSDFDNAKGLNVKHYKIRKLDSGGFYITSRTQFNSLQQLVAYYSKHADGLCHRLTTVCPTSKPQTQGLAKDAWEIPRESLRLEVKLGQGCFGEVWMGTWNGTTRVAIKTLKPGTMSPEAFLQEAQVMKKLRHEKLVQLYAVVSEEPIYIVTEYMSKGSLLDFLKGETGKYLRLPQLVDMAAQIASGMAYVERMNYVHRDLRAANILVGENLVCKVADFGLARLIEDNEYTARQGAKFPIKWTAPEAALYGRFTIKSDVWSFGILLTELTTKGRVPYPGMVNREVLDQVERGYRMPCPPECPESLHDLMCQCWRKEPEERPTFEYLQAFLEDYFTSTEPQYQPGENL
T2 sequence (P53667 whole entry, the tested form may be a part): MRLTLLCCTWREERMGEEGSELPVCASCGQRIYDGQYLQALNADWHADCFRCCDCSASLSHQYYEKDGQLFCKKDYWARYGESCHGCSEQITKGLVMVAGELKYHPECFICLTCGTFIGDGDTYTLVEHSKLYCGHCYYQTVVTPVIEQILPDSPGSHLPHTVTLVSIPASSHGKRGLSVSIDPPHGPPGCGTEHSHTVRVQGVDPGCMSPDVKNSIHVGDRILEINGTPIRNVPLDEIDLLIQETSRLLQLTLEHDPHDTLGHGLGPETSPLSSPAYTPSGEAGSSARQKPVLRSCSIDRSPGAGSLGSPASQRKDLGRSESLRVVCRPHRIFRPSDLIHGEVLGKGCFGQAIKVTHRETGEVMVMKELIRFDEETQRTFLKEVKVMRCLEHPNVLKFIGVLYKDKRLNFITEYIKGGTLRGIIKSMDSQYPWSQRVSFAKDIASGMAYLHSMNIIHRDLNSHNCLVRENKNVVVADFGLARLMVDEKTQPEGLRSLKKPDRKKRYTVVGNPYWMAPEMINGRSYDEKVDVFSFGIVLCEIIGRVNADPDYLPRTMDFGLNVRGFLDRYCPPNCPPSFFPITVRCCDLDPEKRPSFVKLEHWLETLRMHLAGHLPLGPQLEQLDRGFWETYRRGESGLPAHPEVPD
Chain of Rho-associated protein kinase 2 (Homo sapiens) (O75116 whole entry, looked up): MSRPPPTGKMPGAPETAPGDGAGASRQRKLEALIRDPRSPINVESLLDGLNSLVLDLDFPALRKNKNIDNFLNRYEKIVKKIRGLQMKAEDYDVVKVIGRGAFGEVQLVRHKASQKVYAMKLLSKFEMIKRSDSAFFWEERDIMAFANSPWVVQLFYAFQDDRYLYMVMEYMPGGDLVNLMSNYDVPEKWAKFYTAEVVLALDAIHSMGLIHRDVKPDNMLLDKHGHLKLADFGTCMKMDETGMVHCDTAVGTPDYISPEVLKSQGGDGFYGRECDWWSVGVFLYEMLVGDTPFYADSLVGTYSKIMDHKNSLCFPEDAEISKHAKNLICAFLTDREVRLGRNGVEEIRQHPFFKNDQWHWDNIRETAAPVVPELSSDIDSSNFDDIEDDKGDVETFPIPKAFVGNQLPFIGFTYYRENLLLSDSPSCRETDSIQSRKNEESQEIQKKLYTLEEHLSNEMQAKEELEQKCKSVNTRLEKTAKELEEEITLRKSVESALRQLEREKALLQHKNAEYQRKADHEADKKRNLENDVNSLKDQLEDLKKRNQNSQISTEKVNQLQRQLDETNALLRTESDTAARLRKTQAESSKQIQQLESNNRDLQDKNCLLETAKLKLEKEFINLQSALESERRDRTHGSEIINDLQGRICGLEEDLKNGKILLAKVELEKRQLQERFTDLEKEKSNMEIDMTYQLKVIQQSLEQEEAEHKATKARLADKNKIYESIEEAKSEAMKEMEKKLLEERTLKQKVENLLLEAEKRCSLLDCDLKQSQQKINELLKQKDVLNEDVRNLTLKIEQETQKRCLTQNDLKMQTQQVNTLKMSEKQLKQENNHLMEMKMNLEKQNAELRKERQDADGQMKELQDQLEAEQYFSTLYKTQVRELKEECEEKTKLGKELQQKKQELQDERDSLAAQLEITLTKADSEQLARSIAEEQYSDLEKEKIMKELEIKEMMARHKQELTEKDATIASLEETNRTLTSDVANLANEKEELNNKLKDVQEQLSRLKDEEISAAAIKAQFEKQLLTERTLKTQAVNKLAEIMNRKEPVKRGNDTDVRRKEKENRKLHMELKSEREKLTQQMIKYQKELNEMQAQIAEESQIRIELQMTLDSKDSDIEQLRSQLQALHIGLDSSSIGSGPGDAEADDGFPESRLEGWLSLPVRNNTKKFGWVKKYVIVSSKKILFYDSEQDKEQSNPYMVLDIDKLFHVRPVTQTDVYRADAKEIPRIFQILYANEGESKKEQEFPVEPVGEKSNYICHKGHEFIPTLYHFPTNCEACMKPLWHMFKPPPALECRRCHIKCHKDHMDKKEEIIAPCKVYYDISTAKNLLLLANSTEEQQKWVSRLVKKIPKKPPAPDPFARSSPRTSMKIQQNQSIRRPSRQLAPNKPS
Chain of Tyrosine-protein kinase JAK1 (Homo sapiens) (P23458 whole entry): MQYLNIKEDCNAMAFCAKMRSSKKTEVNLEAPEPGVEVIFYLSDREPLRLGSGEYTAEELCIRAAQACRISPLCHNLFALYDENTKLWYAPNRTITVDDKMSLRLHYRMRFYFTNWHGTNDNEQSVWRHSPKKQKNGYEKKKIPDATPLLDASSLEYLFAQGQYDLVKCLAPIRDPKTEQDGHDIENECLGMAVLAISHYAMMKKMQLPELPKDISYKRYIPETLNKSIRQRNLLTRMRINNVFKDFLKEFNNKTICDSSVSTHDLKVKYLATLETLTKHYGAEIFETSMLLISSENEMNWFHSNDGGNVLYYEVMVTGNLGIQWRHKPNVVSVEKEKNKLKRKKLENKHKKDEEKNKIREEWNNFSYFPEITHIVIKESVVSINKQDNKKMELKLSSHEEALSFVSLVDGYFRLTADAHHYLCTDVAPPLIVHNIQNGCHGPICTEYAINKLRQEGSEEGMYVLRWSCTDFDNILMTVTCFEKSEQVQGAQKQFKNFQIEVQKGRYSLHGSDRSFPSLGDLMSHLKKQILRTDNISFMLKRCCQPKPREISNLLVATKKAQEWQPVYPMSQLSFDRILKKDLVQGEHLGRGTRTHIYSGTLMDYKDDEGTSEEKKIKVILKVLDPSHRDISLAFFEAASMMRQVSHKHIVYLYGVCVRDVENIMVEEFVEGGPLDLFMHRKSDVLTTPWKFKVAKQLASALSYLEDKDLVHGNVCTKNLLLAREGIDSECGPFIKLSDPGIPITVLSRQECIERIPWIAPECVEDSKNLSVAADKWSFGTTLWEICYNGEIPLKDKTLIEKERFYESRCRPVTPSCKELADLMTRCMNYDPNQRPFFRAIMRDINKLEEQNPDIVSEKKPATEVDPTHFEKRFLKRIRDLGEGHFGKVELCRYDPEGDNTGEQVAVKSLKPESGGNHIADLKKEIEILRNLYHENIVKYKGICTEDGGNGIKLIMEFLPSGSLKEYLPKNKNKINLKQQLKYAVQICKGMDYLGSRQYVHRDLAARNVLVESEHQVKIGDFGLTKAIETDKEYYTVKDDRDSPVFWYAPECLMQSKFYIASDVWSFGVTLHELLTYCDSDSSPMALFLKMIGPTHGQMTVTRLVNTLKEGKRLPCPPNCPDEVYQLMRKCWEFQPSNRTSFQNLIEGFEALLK
Chain of LIM domain kinase 2 (P53671 whole entry, the tested form may be a part): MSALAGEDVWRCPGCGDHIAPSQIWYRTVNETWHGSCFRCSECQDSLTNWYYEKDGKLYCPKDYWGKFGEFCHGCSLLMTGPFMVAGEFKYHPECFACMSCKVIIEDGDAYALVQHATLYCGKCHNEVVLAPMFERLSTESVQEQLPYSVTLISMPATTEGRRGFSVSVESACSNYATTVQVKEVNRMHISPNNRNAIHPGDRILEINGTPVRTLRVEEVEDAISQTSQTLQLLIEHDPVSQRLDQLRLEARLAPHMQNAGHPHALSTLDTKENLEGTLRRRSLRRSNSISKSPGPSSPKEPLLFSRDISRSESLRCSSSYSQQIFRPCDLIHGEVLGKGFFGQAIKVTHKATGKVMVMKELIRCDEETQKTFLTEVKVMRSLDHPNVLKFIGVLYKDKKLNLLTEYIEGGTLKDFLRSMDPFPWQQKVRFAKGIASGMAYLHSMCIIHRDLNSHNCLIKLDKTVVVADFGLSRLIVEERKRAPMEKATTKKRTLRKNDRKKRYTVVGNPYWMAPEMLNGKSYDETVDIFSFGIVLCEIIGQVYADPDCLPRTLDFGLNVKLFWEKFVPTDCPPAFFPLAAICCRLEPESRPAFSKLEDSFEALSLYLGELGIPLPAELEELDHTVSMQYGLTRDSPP

Compound	inhibition [1]	IC50 [2]	inhibition [3]	inhibition [4]	logD [5]	inhibition at 20 µM [6]	inhibition [7]	solubility kinetic [8]	inhibition at 10 µM [9]	inhibition [10]	inhibition [12]	inhibition [13]	microsomal CLint at 1 µM [14]	IC50 [15]	solubility kinetic [16]	IC50 [17]	inhibition [18]	inhibition at 20 µM [19]	inhibition at 20 µM [20]	microsomal CLint at 1 µM [21]	also measured
Nc1ncnc2c1sc1cc(-c3cccc(C(=O)NCCc4cccnc4)c3)ccc12	60%	97 nM	23%	8%	2.7	74%	31%	< 1.6 µg/mL	11%	85%	98%	13%	116 µL/min/mg	4100 nM	50 µg/mL (≈ 118 µM)	133 nM	13%	99%	13%	111 µL/min/mg	fraction unbound [11]: 0.014
CN1CCN(C(=O)Nc2cccc(-c3ccc4c(c3)sc3c(N)ncnc34)c2)CC1	53%	95 nM	71%	33%	2.5	12%	25%	12.5 µg/mL (≈ 29.9 µM)	27%	75%	88%	24%	165 µL/min/mg	1600 nM	> 100 µg/mL	157 nM	0%	82%	11%	27 µL/min/mg	fraction unbound [11]: 0.037
Nc1ncnc2c1sc1cc(-c3cccc(NC(=O)N4CCCC4)c3)ccc12	56%	95 nM	60%	0%	2.8	9%	13%	3.1 µg/mL (≈ 7.96 µM)	0%	71%	95%	10%	77 µL/min/mg	2400 nM	50 µg/mL (≈ 128 µM)	103 nM	7%	82%	28%	56 µL/min/mg	
